Data from article PMC11165695 (Nature methods, 2024).

Columns and labels:
SJSA-1 cells = assay: Apoptosis induction / caspase-3/7 activation; type: cell-based; details: Supplementary Figure 14
[1] = tested on: alkaline phosphatase (ALP); details: pNPP 200 μM, ALP 0.5 U/mL, PBS, room temperature, UV absorbance 405 nm

Compound: COc1cccc2c1C(=O)c1c(O)c3c(c(O)c1C2=O)C[C@@](O)(C(=O)CO)C[C@@H]3O[C@H]1C[C@H](N)[C@H](O)[C@H](C)O1 [Doxorubicin]
- apoptosis induction (SJSA-1 cells): efficiently induces apoptosis

Compound: O=[N+]([O-])c1ccc(OP(=O)(O)O)cc1 [P-nitrophenyl phosphate]
- initial speed (v0), standard substrate [1]: 0.53 nmol/min
